The values that follow are results of earlier work, collected in Sander's compilation of Henry's law constants (doi:10.1093/bja/45.3.294).

The first data set in a line: Henry solubility constant Hcp at 310 K (mol/(m3 Pa)). Conditions: reference: Allott et al. (1973); cited value.
`FC(F)OC(Cl)C(F)(F)F` (stereo not given) [1-chloro-2,2,2-trifluoroethyl difluoromethyl ether]: the “Henry solubility constant Hcp at 310 K” value was 0.00024.

For the compound `FC(F)OC(F)(F)C(F)Cl` (stereo not given) [2-chloro-1,1,2-trifluoroethyl difluoromethyl ether], the “Henry solubility constant Hcp at 310 K” value is 0.0003.

On to `C=COC=C` [divinyl ether], for which the “Henry solubility constant Hcp at 310 K” value is 0.00054.

A further data set is described as follows: Henry solubility constant Hcp at 298.15 K (mol/(m3 Pa)). As to conditions: reference: Allott et al. (1973); cited value.
`C=COCC(F)(F)F` [(2,2,2-trifluoroethoxy)-ethene]: the “Henry solubility constant Hcp” value is 0.00055.

Regarding `[Xe]` [xenon], the “Henry solubility constant Hcp” value is 4.5e-05.

As to `[N-]=[N+]=O` [dinitrogen monoxide], the “Henry solubility constant Hcp” value was 0.00025.

Regarding `COC(F)(F)C(Cl)Cl` [2,2-dichloro-1,1-difluoro-1-methoxyethane], the “Henry solubility constant Hcp” value is 0.003.

For the compound `C1CC1` [cyclopropane], the “Henry solubility constant Hcp” value is 0.00011.

With `ClC=C(Cl)Cl` [trichloroethene], the “Henry solubility constant Hcp” value is 0.0011.

`[Kr]` [krypton]: the “Henry solubility constant Hcp” value is 2.5e-05.

For `CCOCC` [diethyl ether], the “Henry solubility constant Hcp” value was 0.0096.

For `C=C` [ethene], the “Henry solubility constant Hcp” value is 4.6e-05.

Consider `CCCl` [chloroethane], for which the “Henry solubility constant Hcp” value was 0.00073.

Turning to `FC(Br)C(F)(F)F` (stereo not given) [1-bromo-1,2,2,2-tetrafluoroethane], the “Henry solubility constant Hcp” value was 0.00017.

In the case of `FC(F)(F)C(Cl)Br` (stereo not given) [1-bromo-1-chloro-2,2,2-trifluoroethane], the “Henry solubility constant Hcp” value is 0.00053.
